Results: PubChem BioAssay AID248 (DTP/NCI, 2004)
Inconclusive results and toxic doses are left out. Rule as the data show it: active = T/C of 150% or more; inactive = T/C below 125%.

Test system: L1210 leukemia ip in BDF1 mice, survival T/C
Test: NCI In Vivo Anticancer Drug Screen. Data for tumor model L1210 Leukemia (intraperitoneal) in B6D2F1 (BDF1) mice
Conditions: endpoint: mean survival time, higher = longer survival
Method in brief: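 Ratio derived from survival: compound-dosed mice over vehicle-dosed mice, all bearing a transplantable tumor.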

[1] = dose: 400.0 mg/kg/injection, schedule: Q04DX003 (ip), vehicle: saline with Tween-80
[2] = dose: 100.0 mg/kg/injection, schedule: Q01DX009 (ip), vehicle: Klucel (hydroxypropylcellulose) (HPC)
[3] = dose: 100.0 mg/kg/injection, schedule: Q04DX003 (ip), vehicle: Klucel (hydroxypropylcellulose) (HPC)
[4] = dose: 200.0 mg/kg/injection, schedule: Q01DX009 (ip), vehicle: Klucel (hydroxypropylcellulose) (HPC)
[5] = dose: 200.0 mg/kg/injection, schedule: Q04DX003 (ip), vehicle: Klucel (hydroxypropylcellulose) (HPC)
[6] = dose: 400.0 mg/kg/injection, schedule: Q01DX009 (ip), vehicle: Klucel (hydroxypropylcellulose) (HPC)
[7] = dose: 400.0 mg/kg/injection, schedule: Q04DX003 (ip), vehicle: Klucel (hydroxypropylcellulose) (HPC)
[8] = dose: 100.0 mg/kg/injection, schedule: Q01DX001 (ip), vehicle: saline
[9] = dose: 200.0 mg/kg/injection, schedule: Q01DX001 (ip), vehicle: saline
[10] = dose: 400.0 mg/kg/injection, schedule: Q01DX001 (ip), vehicle: saline
[11] = dose: 100.0 mg/kg/injection, schedule: Q04DX003 (ip), vehicle: saline

Measured: T/C

CC1=CCCCC1Br (configuration not stated)
inactive: dose: 100.0 mg/kg/injection, schedule: Q04DX003 (ip), vehicle: saline with Tween-80 96 % of control | dose: 200.0 mg/kg/injection, schedule: Q04DX003 (ip), vehicle: saline with Tween-80 101 % of control | [1] 98 % of control

CC1CCCN(c2ccc([N+](=O)[O-])cc2[N+](=O)[O-])C1 (configuration not stated)
inactive: [2] 105 % of control | [3] 99 % of control | [4] 96 % of control | [5] 92 % of control | [6] 99 % of control | [7] 97 % of control

CCOC(=O)c1nc2c(OC)nn(O)cc-2c1Br
inactive: dose: 25.0 mg/kg/injection, schedule: Q04DX002 (ip), vehicle: saline with Tween-80 92 % of control | dose: 50.0 mg/kg/injection, schedule: Q04DX002 (ip), vehicle: saline with Tween-80 89 % of control | dose: 100.0 mg/kg/injection, schedule: Q04DX002 (ip), vehicle: saline with Tween-80 96 % of control

O=C(Nc1ccc(Nc2ccccc2)cc1)Nc1ccccc1F
inactive: [2] 97 % of control | [4] 95 % of control | [6] 97 % of control

CCN1/C(=C/C=C/c2oc3ccccc3[n+]2CC)Oc2ccccc21
inactive: dose: 0.05 mg/kg/injection, schedule: Q04DX003 (ip), vehicle: Klucel (hydroxypropylcellulose) (HPC) 102 % of control | dose: 0.1 mg/kg/injection, schedule: Q04DX003 (ip), vehicle: Klucel (hydroxypropylcellulose) (HPC) 100 % of control | dose: 0.2 mg/kg/injection, schedule: Q01DX009 (ip), vehicle: saline 104 % of control | dose: 0.2 mg/kg/injection, schedule: Q04DX003 (ip), vehicle: Klucel (hydroxypropylcellulose) (HPC) 98 % of control | dose: 0.2 mg/kg/injection, schedule: Q04DX003 (ip), vehicle: saline 112 % of control | dose: 0.4 mg/kg/injection, schedule: Q01DX009 (ip), vehicle: saline 109 % of control | dose: 0.4 mg/kg/injection, schedule: Q04DX003 (ip), vehicle: Klucel (hydroxypropylcellulose) (HPC) 104 % of control | dose: 0.4 mg/kg/injection, schedule: Q04DX003 (ip), vehicle: saline 94 % of control | dose: 0.5 mg/kg/injection, schedule: Q01DX001 (ip), vehicle: saline 108 % of control | dose: 0.8 mg/kg/injection, schedule: Q01DX009 (ip), vehicle: saline 114 % of control | dose: 0.8 mg/kg/injection, schedule: Q04DX003 (ip), vehicle: saline 100 % of control | dose: 1.0 mg/kg/injection, schedule: Q01DX001 (ip), vehicle: saline 100 % of control | dose: 1.6 mg/kg/injection, schedule: Q04DX003 (ip), vehicle: saline 107 % of control | dose: 37.5 micrograms/kg/injection, schedule: Q01DX009 (ip), vehicle: Klucel (hydroxypropylcellulose) (HPC) 108 % of control | dose: 75.0 micrograms/kg/injection, schedule: Q01DX009 (ip), vehicle: Klucel (hydroxypropylcellulose) (HPC) 98 % of control | dose: 150.0 micrograms/kg/injection, schedule: Q01DX009 (ip), vehicle: Klucel (hydroxypropylcellulose) (HPC) 107 % of control | dose: 300.0 micrograms/kg/injection, schedule: Q01DX009 (ip), vehicle: Klucel (hydroxypropylcellulose) (HPC) 113 % of control

O=c1n(C2OC(CO)C(O)C2O)ccc2nccn12 (configuration not stated)
inactive: dose: 2.5 mg/kg/injection, schedule: Q01DX009 (ip), vehicle: saline 98 % of control | dose: 3.13 mg/kg/injection, schedule: Q03HX024 (ip), vehicle: saline 98 % of control | dose: 5.0 mg/kg/injection, schedule: Q01DX009 (ip), vehicle: saline 95 % of control | dose: 6.25 mg/kg/injection, schedule: Q03HX024 (ip), vehicle: saline 96 % of control | dose: 10.0 mg/kg/injection, schedule: Q01DX009 (ip), vehicle: saline 98 % of control | dose: 12.5 mg/kg/injection, schedule: Q03HX024 (ip), vehicle: saline 100 % of control | dose: 20.0 mg/kg/injection, schedule: Q01DX009 (ip), vehicle: saline 106 % of control | dose: 25.0 mg/kg/injection, schedule: Q03HX024 (ip), vehicle: saline 100 % of control | dose: 40.0 mg/kg/injection, schedule: Q01DX009 (ip), vehicle: saline 101 % of control | dose: 50.0 mg/kg/injection, schedule: Q01DX005 (ip), vehicle: saline 95 % of control | dose: 50.0 mg/kg/injection, schedule: Q03HX024 (ip), vehicle: saline 122 % of control | dose: 100.0 mg/kg/injection, schedule: Q01DX005 (ip), vehicle: saline 103 % of control | dose: 200.0 mg/kg/injection, schedule: Q01DX005 (ip), vehicle: saline 92 % of control | dose: 400.0 mg/kg/injection, schedule: Q01DX005 (ip), vehicle: saline 94 % of control

N#Cc1cc(C#N)c(Cl)nc1N
inactive: [2] 94 % of control | [3] 97 % of control | [4] 95 % of control | [5] 95 % of control | [7] 106 % of control

O=C(Cl)OCC(Cl)(Cl)Cl
inactive: dose: 100.0 mg/kg/injection, schedule: Q01DX001 (ip), vehicle: Klucel (hydroxypropylcellulose) (HPC) 100 % of control | [2] 100 % of control | dose: 200.0 mg/kg/injection, schedule: Q01DX001 (ip), vehicle: Klucel (hydroxypropylcellulose) (HPC) 100 % of control | [4] 96 % of control | dose: 400.0 mg/kg/injection, schedule: Q01DX001 (ip), vehicle: Klucel (hydroxypropylcellulose) (HPC) 100 % of control

COc1c2occc2c(OC)c2c(=O)cc(/C=C/c3ccncc3)oc12
inactive: [8] 97 % of control | [9] 94 % of control | [10] 101 % of control

C=NC
inactive: [8] 105 % of control | [11] 103 % of control

O=C(Nc1ccccc1)c1ccc([N+](=O)[O-])cc1Cl
inactive: [3] 100 % of control | [5] 95 % of control | [7] 90 % of control

CCCCCCCCCCCCCCCCCCCC
inactive: dose: 25.0 mg/kg/injection, schedule: Q01DX009 (ip), vehicle: other 109 % of control | dose: 50.0 mg/kg/injection, schedule: Q01DX009 (ip), vehicle: other 101 % of control | dose: 100.0 mg/kg/injection, schedule: Q01DX009 (ip), vehicle: other 93 % of control

CC(=O)OC1C=COC(C)C1OC(C)=O (configuration not stated)
inactive: dose: 50.0 mg/kg/injection, schedule: Q01DX001 (ip), vehicle: saline 105 % of control | [8] 97 % of control | dose: 100.0 mg/kg/injection, schedule: Q01DX009 (ip), vehicle: saline 109 % of control | [11] 102 % of control | [9] 100 % of control | dose: 200.0 mg/kg/injection, schedule: Q01DX009 (ip), vehicle: saline 93 % of control | dose: 200.0 mg/kg/injection, schedule: Q04DX003 (ip), vehicle: saline 91 % of control | [10] 105 % of control | dose: 400.0 mg/kg/injection, schedule: Q01DX009 (ip), vehicle: saline 102 % of control | dose: 400.0 mg/kg/injection, schedule: Q04DX003 (ip), vehicle: saline 96 % of control

COC(=O)c1ccc(OC)c(-c2cc(OC)ccc2C(=O)OC)c1
inactive: dose: 100.0 mg/kg/injection, schedule: Q04DX002 (ip), vehicle: Klucel (hydroxypropylcellulose) (HPC) 112 % of control | dose: 200.0 mg/kg/injection, schedule: Q04DX002 (ip), vehicle: Klucel (hydroxypropylcellulose) (HPC) 101 % of control | dose: 400.0 mg/kg/injection, schedule: Q04DX002 (ip), vehicle: Klucel (hydroxypropylcellulose) (HPC) 104 % of control

COc1ccc(C(CC(=O)c2ccccc2)CC(=O)c2ccccc2)cc1
inactive: [1] 87 % of control

Brc1ccc[n+](Cc2ccccc2)c1
inactive: dose: 75.0 mg/kg/injection, schedule: Q01DX001 (ip), vehicle: saline 98 % of control
